From publication PMC8187944, “Discovery of Potent EGFR Inhibitors With 6-Arylureido-4-anilinoquinazoline Derivatives” (Frontiers in Pharmacology, 2021)

What was measured:
ERK2 = ERK2 (Homo sapiens, UniProt P28482); assay: Kinase spectrum assay (ADP-Glo); settings: remaining enzyme activity at 1 μm compound
PDK1 = PDK1 (Homo sapiens, UniProt O15530); assay: Kinase spectrum assay (ADP-Glo); settings: remaining enzyme activity at 1 μm compound
EGFR = target: T1, EGFR (Homo sapiens, UniProt P00533); assay: EGFR kinase inhibition, ADP-Glo assay; assay type: biochemical
T1 construct: 2 μl (50 ng/ml) of EGFR kinase
Procedure: The EGFR kinase inhibition activities of the target compounds were evaluated by the ADP-Glo™ assay. The ADP-Glo™ kinase detection kit is a luminescence kinase detection approach that detects the amount of ADP produced by the kinase reaction. After ADP is converted into ATP, ATP can be used as the substrate of the luciferase-catalyzed reaction to generate an optical signal, which is positively correlated with kinase activity. […] The above-prepared systems were sealed and incubated at room temperature for 2 h, and 5 μl of ADP-GLO was added to terminate the kinase reaction. Then, the culture plate was sealed and incubated in a thermostatic oscillator for 40 min to fully consume the remaining ATP. The luciferase/luciferin reaction was adopted to determine the newly generated ATP level.

Aqueous solubility = assay type: physicochemical; settings: in words
HER4 = HER4 (Homo sapiens, UniProt Q15303); assay: Kinase spectrum assay (ADP-Glo); settings: remaining enzyme activity at 1 μm compound
PKCa = PKCa (Homo sapiens, UniProt P17252); assay: Kinase spectrum assay (ADP-Glo); settings: remaining enzyme activity at 1 μm compound
Csk = Csk (Homo sapiens, UniProt P41240); assay: Kinase spectrum assay (ADP-Glo); settings: remaining enzyme activity at 1 μm compound
Chk1 = Chk1 (Homo sapiens, UniProt O14757); assay: Kinase spectrum assay (ADP-Glo); settings: remaining enzyme activity at 1 μm compound
other protein kinases = assay: Kinase spectrum assay (ADP-Glo), text summary for kinases other than EGFR; settings: all panel kinases other than EGFR, at 1.0 μm compound
CLK3 = CLK3 (Homo sapiens, UniProt P49761); assay: Kinase spectrum assay (ADP-Glo); settings: remaining enzyme activity at 1 μm compound
LCK = LCK (Homo sapiens, UniProt P06239); assay: Kinase spectrum assay (ADP-Glo); settings: remaining enzyme activity at 1 μm compound
MAPKAPK2 = MAPKAPK2 (Homo sapiens, UniProt P49137); assay: Kinase spectrum assay (ADP-Glo); settings: remaining enzyme activity at 1 μm compound
ROCK1 = ROCK1 (Homo sapiens, UniProt Q13464); assay: Kinase spectrum assay (ADP-Glo); settings: remaining enzyme activity at 1 μm compound
JNK1 = JNK1 (Homo sapiens, UniProt P45983); assay: Kinase spectrum assay (ADP-Glo); settings: remaining enzyme activity at 1 μm compound
PKACα = PKACα (Homo sapiens, UniProt P17612); assay: Kinase spectrum assay (ADP-Glo); settings: remaining enzyme activity at 1 μm compound
TRKA = TRKA (Homo sapiens, UniProt P04629); assay: Kinase spectrum assay (ADP-Glo); settings: remaining enzyme activity at 1 μm compound
A549 cells = assay: Anti-proliferative assay, standard CCK-8 method; assay type: cell-based, human; settings: Homo sapiens, mean ± SD of at least three independent experiments, read-out: Proliferative inhibition (IC50, μM) A549
Source text: (§1) All reagents and solvents met the criteria of analytical reagents before use. All cancer cell lines (A549, human non-small-cell lung cell line; HT-29, human colonic adenocarcinoma cell line; MCF-7, human breast cancer cell line) were purchased from Stem Cell Bank, Chinese Academy of Sciences. […] ADP-Glo™ kinase assay kits were provided by Promega (Beijing) Biotech Co., Ltd. (Beijing, China). All kinase subtypes were supplied by SignalChem (BC, Canada).
(§2) The designed 4-anilinoquinazoline derivatives were evaluated for their antitumor bioactivities in vitro against three human tumor cell lines (A549, HT-29, and MCF-7) using the standard CCK-8 method. The CCK-8 method is based on WST-8 dye, 2-(2-methoxy-4-nitrophenyl)-3-(4-nitrophenyl)-5-(2,4-disulfophenyl)-2H-tetrazolium. WST-8 can be bio-reduced by dehydrogenases in mitochondria into orange water-soluble formazan products. Briefly, selected cancer cells in the logarithmic growth phase (1 × 10^4) were inoculated in 96-well plates and further cultured in the incubator for 24 h. First, the target compounds were diluted to different concentrations with culture medium with each dilution gradually diluted from the highest concentration solution. Second, the original culture medium was removed after the cells were completely adherent to the wall, and the compounds at various concentrations prepared above were added. In this experiment, a control group and a blank group were set: the former was treated with 0.1% DMSO solution, and the latter was treated with only the culture medium. […] A microplate reader was adopted to record the absorbance at 450 nm, and in this assay, gefitinib, erlotinib, and sorafenib were used as the reference drugs.

HT-29 cells = assay: Anti-proliferative assay, standard CCK-8 method; assay type: cell-based, human; settings: Homo sapiens, mean ± SD of at least three independent experiments, read-out: Proliferative inhibition (IC50, μM) HT-29
Source text: as §1, §2

MCF-7 cells = assay: Anti-proliferative assay, standard CCK-8 method; assay type: cell-based, human; settings: Homo sapiens, MCF7, mean ± SD of at least three independent experiments, read-out: Proliferative inhibition (IC50, μM) MCF-7
Source text: as §1, §2

Syk = Syk (Homo sapiens, UniProt P43405); assay: Kinase spectrum assay (ADP-Glo); settings: remaining enzyme activity at 1 μm compound
GSK3β = GSK3β (Homo sapiens, UniProt P49841); assay: Kinase spectrum assay (ADP-Glo); settings: remaining enzyme activity at 1 μm compound
B-raf = B-raf (Homo sapiens, UniProt P15056); assay: Kinase spectrum assay (ADP-Glo); settings: remaining enzyme activity at 1 μm compound
KDR = KDR (Homo sapiens, UniProt P35968); assay: Kinase spectrum assay (ADP-Glo); settings: remaining enzyme activity at 1 μm compound
CAMK2α = CAMK2α (Homo sapiens, UniProt Q9UQM7); assay: Kinase spectrum assay (ADP-Glo); settings: remaining enzyme activity at 1 μm compound
NIK = NIK (Homo sapiens, UniProt Q99558); assay: Kinase spectrum assay (ADP-Glo); settings: remaining enzyme activity at 1 μm compound
Sequence of NIK (Q99558 whole entry): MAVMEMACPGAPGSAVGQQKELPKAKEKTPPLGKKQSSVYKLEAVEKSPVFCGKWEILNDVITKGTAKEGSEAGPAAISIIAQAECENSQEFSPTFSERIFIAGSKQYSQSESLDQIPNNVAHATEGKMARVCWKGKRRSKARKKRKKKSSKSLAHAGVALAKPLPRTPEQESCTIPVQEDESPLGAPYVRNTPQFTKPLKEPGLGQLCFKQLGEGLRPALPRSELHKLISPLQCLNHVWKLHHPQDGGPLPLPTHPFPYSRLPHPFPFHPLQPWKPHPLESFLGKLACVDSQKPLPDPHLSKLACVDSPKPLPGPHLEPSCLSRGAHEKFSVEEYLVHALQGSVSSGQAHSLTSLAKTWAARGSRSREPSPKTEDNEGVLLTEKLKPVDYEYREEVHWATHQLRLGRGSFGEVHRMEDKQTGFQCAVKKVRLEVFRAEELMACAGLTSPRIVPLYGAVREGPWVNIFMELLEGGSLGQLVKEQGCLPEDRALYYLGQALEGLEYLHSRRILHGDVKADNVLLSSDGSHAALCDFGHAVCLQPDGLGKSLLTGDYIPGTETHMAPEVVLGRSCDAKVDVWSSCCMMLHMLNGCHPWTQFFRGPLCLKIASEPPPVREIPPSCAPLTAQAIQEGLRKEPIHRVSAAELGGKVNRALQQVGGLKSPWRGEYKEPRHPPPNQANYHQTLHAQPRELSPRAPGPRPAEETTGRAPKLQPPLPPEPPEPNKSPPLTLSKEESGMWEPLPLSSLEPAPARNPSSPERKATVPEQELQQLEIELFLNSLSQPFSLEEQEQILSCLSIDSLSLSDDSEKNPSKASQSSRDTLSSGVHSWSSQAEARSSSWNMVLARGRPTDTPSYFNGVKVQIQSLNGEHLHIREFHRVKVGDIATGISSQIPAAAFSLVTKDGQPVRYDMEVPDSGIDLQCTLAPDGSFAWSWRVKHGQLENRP

T1 sequence (P00533 25-1210): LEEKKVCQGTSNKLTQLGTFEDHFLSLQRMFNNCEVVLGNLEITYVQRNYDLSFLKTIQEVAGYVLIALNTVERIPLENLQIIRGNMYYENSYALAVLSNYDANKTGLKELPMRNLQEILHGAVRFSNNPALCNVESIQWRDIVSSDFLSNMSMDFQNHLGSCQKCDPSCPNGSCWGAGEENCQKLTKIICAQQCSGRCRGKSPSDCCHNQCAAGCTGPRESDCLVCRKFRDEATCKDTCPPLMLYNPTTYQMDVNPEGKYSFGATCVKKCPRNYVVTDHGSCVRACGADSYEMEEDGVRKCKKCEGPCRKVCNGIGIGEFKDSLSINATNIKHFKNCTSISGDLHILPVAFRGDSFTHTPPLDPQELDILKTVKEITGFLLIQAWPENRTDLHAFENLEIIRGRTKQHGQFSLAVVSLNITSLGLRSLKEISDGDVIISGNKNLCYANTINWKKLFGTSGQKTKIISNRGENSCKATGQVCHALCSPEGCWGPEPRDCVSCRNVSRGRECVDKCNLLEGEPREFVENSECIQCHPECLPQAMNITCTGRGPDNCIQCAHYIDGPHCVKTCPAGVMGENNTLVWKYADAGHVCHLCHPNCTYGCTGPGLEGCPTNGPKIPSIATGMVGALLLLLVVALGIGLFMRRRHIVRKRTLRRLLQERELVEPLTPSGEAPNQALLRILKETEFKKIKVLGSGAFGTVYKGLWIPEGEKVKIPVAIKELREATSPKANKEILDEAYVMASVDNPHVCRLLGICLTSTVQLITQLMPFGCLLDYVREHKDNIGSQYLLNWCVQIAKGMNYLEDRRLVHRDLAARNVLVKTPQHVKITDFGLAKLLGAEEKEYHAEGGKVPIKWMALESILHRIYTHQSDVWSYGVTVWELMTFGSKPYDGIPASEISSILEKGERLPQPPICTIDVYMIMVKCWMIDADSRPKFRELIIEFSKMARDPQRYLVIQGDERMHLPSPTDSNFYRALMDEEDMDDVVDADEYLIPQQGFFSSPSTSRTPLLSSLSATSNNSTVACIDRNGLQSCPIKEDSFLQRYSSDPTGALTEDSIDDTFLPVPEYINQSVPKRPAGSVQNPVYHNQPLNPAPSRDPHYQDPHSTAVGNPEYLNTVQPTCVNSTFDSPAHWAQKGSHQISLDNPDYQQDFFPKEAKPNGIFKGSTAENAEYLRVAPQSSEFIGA
Sequence of JNK1 (P45983 whole entry): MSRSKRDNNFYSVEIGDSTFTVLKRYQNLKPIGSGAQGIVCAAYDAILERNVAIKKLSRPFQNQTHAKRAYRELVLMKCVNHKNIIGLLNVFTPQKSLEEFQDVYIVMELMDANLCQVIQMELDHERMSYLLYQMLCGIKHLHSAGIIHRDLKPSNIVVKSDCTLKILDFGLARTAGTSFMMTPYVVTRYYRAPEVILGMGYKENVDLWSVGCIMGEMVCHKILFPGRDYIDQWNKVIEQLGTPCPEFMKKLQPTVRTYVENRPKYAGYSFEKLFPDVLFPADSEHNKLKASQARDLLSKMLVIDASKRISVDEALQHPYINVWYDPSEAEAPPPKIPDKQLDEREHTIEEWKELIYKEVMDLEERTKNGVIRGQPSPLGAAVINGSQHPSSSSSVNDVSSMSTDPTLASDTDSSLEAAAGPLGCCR
Sequence of MAPKAPK2 (P49137 whole entry): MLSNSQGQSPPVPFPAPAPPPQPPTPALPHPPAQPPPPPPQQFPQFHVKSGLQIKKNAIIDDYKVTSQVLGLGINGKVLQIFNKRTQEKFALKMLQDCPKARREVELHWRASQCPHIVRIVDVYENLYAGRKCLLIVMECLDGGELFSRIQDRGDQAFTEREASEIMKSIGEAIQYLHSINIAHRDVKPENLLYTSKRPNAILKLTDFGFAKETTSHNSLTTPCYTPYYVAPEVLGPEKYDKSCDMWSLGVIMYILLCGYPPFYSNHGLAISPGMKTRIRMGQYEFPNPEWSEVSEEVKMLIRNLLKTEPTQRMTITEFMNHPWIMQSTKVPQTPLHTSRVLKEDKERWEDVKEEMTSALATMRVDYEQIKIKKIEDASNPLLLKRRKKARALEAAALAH
Sequence of PDK1 (O15530 whole entry): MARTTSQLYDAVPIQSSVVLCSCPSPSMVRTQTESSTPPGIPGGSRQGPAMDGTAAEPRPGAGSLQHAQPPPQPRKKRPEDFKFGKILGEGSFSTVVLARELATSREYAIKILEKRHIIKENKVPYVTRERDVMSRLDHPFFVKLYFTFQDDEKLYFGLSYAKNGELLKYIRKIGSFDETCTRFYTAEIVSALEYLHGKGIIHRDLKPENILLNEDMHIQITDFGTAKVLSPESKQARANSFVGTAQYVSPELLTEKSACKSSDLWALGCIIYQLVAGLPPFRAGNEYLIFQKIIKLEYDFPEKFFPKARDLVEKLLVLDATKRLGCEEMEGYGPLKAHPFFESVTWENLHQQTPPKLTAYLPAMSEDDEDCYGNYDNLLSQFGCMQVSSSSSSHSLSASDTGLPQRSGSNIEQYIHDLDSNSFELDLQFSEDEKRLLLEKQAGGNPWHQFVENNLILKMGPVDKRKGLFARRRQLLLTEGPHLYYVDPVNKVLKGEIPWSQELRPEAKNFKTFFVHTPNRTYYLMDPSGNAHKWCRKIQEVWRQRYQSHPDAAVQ
Sequence of CLK3 (P49761 whole entry): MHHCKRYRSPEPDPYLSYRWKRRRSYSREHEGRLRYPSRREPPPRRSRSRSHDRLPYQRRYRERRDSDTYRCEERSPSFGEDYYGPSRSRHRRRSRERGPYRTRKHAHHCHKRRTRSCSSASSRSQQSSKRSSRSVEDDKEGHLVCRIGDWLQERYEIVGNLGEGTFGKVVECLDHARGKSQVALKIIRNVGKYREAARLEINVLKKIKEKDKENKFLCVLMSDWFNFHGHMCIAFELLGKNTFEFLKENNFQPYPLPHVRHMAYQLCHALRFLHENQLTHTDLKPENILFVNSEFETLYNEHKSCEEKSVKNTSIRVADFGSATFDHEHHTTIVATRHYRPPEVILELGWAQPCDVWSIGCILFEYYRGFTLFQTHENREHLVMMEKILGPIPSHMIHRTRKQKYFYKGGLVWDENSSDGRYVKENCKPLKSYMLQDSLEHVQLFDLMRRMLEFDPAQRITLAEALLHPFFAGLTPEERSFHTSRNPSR
Sequence of TRKA (P04629 33-796): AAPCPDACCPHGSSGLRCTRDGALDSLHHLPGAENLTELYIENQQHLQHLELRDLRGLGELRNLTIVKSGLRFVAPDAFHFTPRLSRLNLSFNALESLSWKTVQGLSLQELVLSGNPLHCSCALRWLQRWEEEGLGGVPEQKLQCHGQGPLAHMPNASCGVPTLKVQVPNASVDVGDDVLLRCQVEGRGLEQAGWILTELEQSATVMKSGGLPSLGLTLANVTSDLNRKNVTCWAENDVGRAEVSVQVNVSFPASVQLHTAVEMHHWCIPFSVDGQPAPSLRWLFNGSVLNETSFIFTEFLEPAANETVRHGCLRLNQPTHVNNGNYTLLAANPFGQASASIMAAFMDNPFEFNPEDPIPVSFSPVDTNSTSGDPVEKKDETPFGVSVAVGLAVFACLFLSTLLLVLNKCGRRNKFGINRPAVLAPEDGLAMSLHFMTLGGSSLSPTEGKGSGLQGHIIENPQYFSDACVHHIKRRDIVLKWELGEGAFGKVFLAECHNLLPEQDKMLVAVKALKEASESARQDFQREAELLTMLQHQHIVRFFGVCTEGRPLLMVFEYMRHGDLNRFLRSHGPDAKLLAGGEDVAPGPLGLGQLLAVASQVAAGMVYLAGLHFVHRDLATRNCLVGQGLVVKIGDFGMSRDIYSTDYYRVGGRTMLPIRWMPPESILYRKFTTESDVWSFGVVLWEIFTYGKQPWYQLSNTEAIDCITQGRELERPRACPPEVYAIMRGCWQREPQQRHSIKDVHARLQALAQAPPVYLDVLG

Which “Enzyme activity % ERK2” value (ERK2) does the source give for O=C(Nc1ccc(Cl)c(C(F)(F)F)c1)Nc1ccc2ncnc(Nc3cccc(Br)c3)c2c1 [Compound 7i] here?
The value was 97.31 ± 11.84%.

What about the “Enzyme activity % PDK1” value (PDK1) of the same molecule?
The value was 74.18 ± 0.62%.

And the IC50 (EGFR; ADP-Glo, mean ± SD of at least two independent experiments, read-out: Enzymatic inhibition IC50 (nM) EGFR)?
Its IC50 is 17.3 ± 0.54 nM.

And the “Enzyme activity % EGFR” value (EGFR; remaining enzyme activity at 1 μm compound)?
Its value is 10.52 ± 0.26%.

And the melting point?
Its melting point is 268 to 268.9 °C.

What about the aqueous solubility (Aqueous solubility) of the same molecule?
The aqueous solubility was “soluble”.

And the “Enzyme activity % HER4” value (HER4)?
The value was 76.85 ± 0.33%.

What about the “Enzyme activity % PKCa” value (PKCa) of the same molecule?
The value was 77.27 ± 1.18%.

And the “Enzyme activity % Csk” value (Csk)?
The value was 93.76 ± 4.09%.

What about the “Enzyme activity % Chk1” value (Chk1) of the same molecule?
Its value is 75.98 ± 6.72%.

What about the “enzyme activity of the other protein kinases” value (other protein kinases) of the same molecule?
Its value is over 50%.

What about the “Enzyme activity % CLK3” value (CLK3) of the same molecule?
The value was 86.80 ± 1.90%.

And the “Enzyme activity % LCK” value (LCK)?
Its value is 86.84 ± 6.53%.

And the “Enzyme activity % MAPKAPK2” value (MAPKAPK2)?
The value was 86.46 ± 7.38%.

What about the “Enzyme activity % ROCK1” value (ROCK1) of the same molecule?
The value was 78.70 ± 4.00%.

And the “Enzyme activity % JNK1” value (JNK1)?
The value was 89.43 ± 2.48%.

And the “Enzyme activity % PKACα” value (PKACα)?
Its value is 86.02 ± 3.75%.

And the “Enzyme activity % TRKA” value (TRKA)?
Its value is 83.52 ± 3.13%.

And the IC50 (A549 cells)?
Its IC50 is 2.25 ± 0.08 µM.

What about the IC50 (HT-29 cells) of the same molecule?
Its IC50 is 1.72 ± 0.49 µM.

And the IC50 (MCF-7 cells)?
Its IC50 is 2.81 ± 0.09 µM.

And the “Enzyme activity % Syk” value (Syk)?
The value was 101.13 ± 9.99%.

What about the “Enzyme activity % GSK3β” value (GSK3β) of the same molecule?
The value was 103.71 ± 1.75%.

And the “Enzyme activity % B-raf” value (B-raf)?
Its value is 96.68 ± 4.29%.

What about the “Enzyme activity % KDR” value (KDR) of the same molecule?
Its value is 79.66 ± 2.00%.

What about the “Enzyme activity % CAMK2α” value (CAMK2α) of the same molecule?
Its value is 72.67 ± 2.92%.

And the “Enzyme activity % NIK” value (NIK)?
The value was 76.97 ± 5.84%.
